How the values were obtained:
[1] = system: germinal epithelium cells; details: in the presence of 10% HC CSF; n=3
[2] = system: H-Tx model of EOHC; assay: In vivo supplementation of mothers, numbers of affected HC fetuses; design: species or system rat; details: long term: 2.5 mg/kg daily from 14 days prior to mating to day 20; saline controls 45%
Procedure: (§1) Mothers were injected daily with 2.5 mg/kg of the supplements folic acid or folinic acid or saline controls. Injections were started 14 days prior to mating and continued throughout pregnancy up to harvesting of the fetuses at day 20. Fetuses were harvested on Day20 of gestation and each fetus was scored as affected HC or normal. The percentage of normal or affected fetuses in each litter was then calculated and results were averaged across the 3 mothers (2 for saline treatment) and are plotted as shown, mean±SD.
as §1, with “acid.” for “acid or saline controls.”, “at E17 of the pregnancy” for “14 days prior to mating”, “through the rest of the” for “throughout”
Timed pregnancies of H-Tx or Wistar rats were harvested from pregnant dams killed by intraperitoneal injection of sodium pentobarbitone. […]
Female rats were handled for one week prior to the start of the supplementation protocol to decrease handling stress. […] Stained sections were photographed on a Lecia DMLB photomicroscope and analysed using Metaview software. […]

[3] = human population, supplementation of female diets; data from reports; cited from earlier work
[4] = Effect of supplementation on mother's weight through pregnancy; assay type: in vivo, rat; details: 2.5 mg/kg daily injection from 14 days prior to mating to day 20; no significant differences
Procedure: Mothers were injected daily with 2.5 mg/kg of the supplements folic acid or folinic acid or saline controls. Injections were started 14 days prior to mating and continued throughout pregnancy up to harvesting of the fetuses at day 20. Mothers were weighed at the same time each day and data converted to % of starting weight at day 0. Results were averaged across the 3 mothers (2 for saline treatment) and are plotted as shown mean±SD.
The hypothesis was tested further using the H-Tx model of EOHC. Mothers were injected daily with 2.5 mg/kg of the supplements folic acid (3 mothers-31 pups) or folinic acid (3 mothers-35 pups) or saline controls (2 mothers-20 pups). Injections were started 14 days prior to mating and continued throughout pregnancy up to harvesting of the fetuses at day 20.

In the case of Nc1nc2ncc(CNc3ccc(C(=O)N[C@@H](CCC(=O)O)C(=O)O)cc3)nc2c(=O)[nH]1 [[^3H]-folic acid], the “uptake, % of that in the absence of added CSF” value [1] is reported as 53±13%.
For Nc1nc2ncc(CNc3ccc(C(=O)N[C@@H](CCC(=O)O)C(=O)O)cc3)nc2c(=O)[nH]1 [folic acid], the “incidence of HC (percentage of affected fetuses in the litter)” value [2] is given as 60%, the “effect on the incidence of HC” value [3] is given as “does not have any significant effect” and the “weight of the mothers compared to saline treated animals” value [4] is given as “slightly increased weight”.

From patent US20110092453A1, “TREATMENTS AND PREVENTION OF HYDROCEPHALUS” (THE UNIVERSITY OF MANCHESTER, priority 2007, published 2011)
